Experimental data taken from patent US3931204A, “Thieno[3,4-d]pyrimidines” (U.C.B. Societe Anonyme, priority 1974, dated 1976).

Columns and labels:
[1] = tested on: dog anaesthetized with nembutal; assay: Blood flow in thoracic aorta (cardiac output), vertebral artery (cerebral flow) and femoral artery (musculocutaneous peripheral flow), electromagnetic flow measurement, anaesthetized dog; format: in vivo; conditions: 2 mg/kg animal body weight, intravenous; for increase in the femoral flow: femoral artery; for increase in the cardiac flow: thoracic aorta; for increase in the cerebral flow (in words): vertebral artery; for duration of the increase of the cerebral circulation: increase by 30 to 40%
Procedure: The measurements were carried out by means of periarterial probes according to the principle of electromagnetic flow measurement. The general experimental conditions have already been described in the Literature (D. WELLENS and E. WAUTERS, Arch.Int.Pharmacod.171/1,(1968), 246). The medicament was administered by intravenous route.
The administration of compounds according to the invention, namely the 2-chloro-4-isopropylamino-thieno[3,4-d]pyrimidine monohydrochloride (compound A), the 2-chloro-4-morpholino-thieno[3,4-d]pyrimidine monohydrochloride (compound B), the 2-chloro-4-(3-methyl-morpholino)-thieno[3,4-d]pyrimidine monohydrochloride (compound C), the 2-n-propylamino-4-isopropylamino-thieno[3,4-d]-pyrimidine monomaleate (compound D) and the 2-n-propyl-4-isopropylamino-thieno[3,4-d]pyrimidine mono-maleate (compound E) brought about the following effects under these conditions: […]

[2] = Intravenous lethal dose (LD50) in mouse; conditions: in vivo, solvent: C water, D glycofurol, E polyethylene glycol
Procedure: (§1) The intravenously administered lethal doses (LD50) were determined in rat and mouse. For compounds A to G mentioned above, the recorded results, expressed in mg of compound per kg of animal body weight, are given in the following Table: […]

[3] = Intravenous lethal dose (LD50) in rat; conditions: in vivo, solvent: A propylene glycol + water, B polyethylene glycol + ethanol, C, F, G water, D glycofurol
Procedure: as §1

[4] = tested on: rabbit, in morphinic respiratory depression; assay: Respiratory analeptic action in morphinic respiratory depression; format: in vivo; conditions: 2,5 mg of free base/kg animal body weight

SMILES | increase in the femoral flow [1] | increase in the cardiac flow [1] | increase in the cerebral flow (in words) [1] | LD50 [2] [mg/kg] | duration of the increase of the cerebral circulation [1] | LD50 [3] [mg/kg] | respiratory analeptic effect relative to diethylnicotinamide [4]
CCCc1nc(NC(C)C)c2cscc2n1.O=C(O)/C=C\C(=O)O [E, 2-n-propyl-4-isopropylamino-thieno[3,4-d]pyrimidine mono-maleate] | appreciable increase | appreciable increase | appreciable increase | 23 | – | – | –
CCCNc1nc(NC(C)C)c2cscc2n1.O=C(O)/C=C\C(=O)O [D, 2-n-propylamino-4-isopropylamino-thieno[3,4-d]-pyrimidine monomaleate] | marked increase | appreciable increase | marked increase | 21 | at least 40 minutes | 25.5 | –
CCCNc1nc(OCC)nc2cscc12.Cl [G, 2-ethoxy-4-n-propylamino-thieno[3,4-d]pyrimidine monohydrochloride] | – | – | – | – | – | 42 | equivalent to that produced by a six times higher dose of diethylnicotinamide
Cl.Clc1nc(N2CCOCC2)c2cscc2n1 [B, 2-chloro-4-morpholino-thieno[3,4-d]pyrimidine monohydrochloride] | appreciable increase | appreciable increase | appreciable increase | – | – | 130 | –
CC1COCCN1c1nc(Cl)nc2cscc12.Cl (stereo not shown) [C, 2-chloro-4-(3-methyl-morpholino)-thieno[3,4-d]pyrimidine monohydrochloride] | marked increase | appreciable increase | marked increase | 117 | at least 40 minutes | 109 | –
CC(C)Nc1nc(Cl)nc2cscc12.Cl [A, 2-chloro-4-isopropylamino-thieno[3,4-d]pyrimidine monohydrochloride] | appreciable increase | appreciable increase | appreciable increase | – | – | 65 | –
CCOc1nc(NC(C)C)c2cscc2n1.Cl [F, 2-ethoxy-4-isopropylamino-thieno[3,4-d]pyrimidine monohydrochloride] | – | – | – | – | – | 49 | equivalent to that produced by a six times higher dose of diethylnicotinamide
